Experimental data reported in patent US8575107B2, “Clusterin derived peptide” (Compugen Ltd., priority 2008, dated 2013).
Where a SMILES comes first, the peptide text is derived from it.

How the values were obtained:
[1] = test system: breast cancer cell line MCF-7
Protocol: MCF7 cells were seeded at 10,000 cells per well in 150 μl of media (DMEM medium+5% FBS) in a 96 well plate.
The relative growth was normalized to controls where CGEN-CL1 was not added to wells.

PC3 cells = experiment: Cell cycle analysis by propidium iodide staining (FACS) in PC3 cells; assay type: cell-based; settings: 300 nM or 1 μM CGEN-CL1, PI staining
Protocol: Apoptosis was analyzed either by cell cycle analysis or by PARP cleavage estimation. The amount of cleaved PARP is proportional to the amount of cells undergoing apoptosis (see for example Boulares A. H., et al., 1999, JBC 274:22932-22940).
Cell Cycle Analysis was carried out by Propidium Iodide (PI) Staining. The cells were trypsinized and suspended in DMEM medium+10% FCS. Following centrifugation (1000 rpm, 5 min) the cell pellet was suspended in PBS (1 ml). Fixation with EtOH was performed as follows: cell suspension was transferred into 2.5 ml absolute EtOH (final concentration approx. 70%) by pipetting or by vortexing the suspension at half speed while adding the EtOH) to prevent clustering of cells during the fixation. EtOH fixated cells were incubated on ice for 15 min (or overnight at −20° C.).
Propidium Iodide (PI) staining of the cells was carried out as follows: the cells were pelleted at 1500 rpm for 5 min and then suspended in 500 μl PI-solution (in PBS: 50 μg/ml PI from 50× stock solution (2.5 mg/ml); 0.1 mg/ml RNase A; 0.05% Triton X-100), following incubation for 40 min at 37° C. Then 3 ml of PBS were added, and the cells were pelleted at 1500 rpm, 5 min. The cell pellet was suspended in 500 μl PBS for flow analysis. The flow analysis was carried out using the following approximate settings (on FACSort): FL1: 570 V log; FL2: 470 V linear.

[2] = molecular target: T1, recombinant human clusterin (Homo sapiens, UniProt P10909); experiment: BIAcore SPR, CGEN-CL1 co-incubated with partner helix, binding to clusterin; settings: CGEN-CL1 and SEQ ID NO:5, 10 μM each, preincubated 30 minutes
T1 construct: purchased Biovendor RD172034100
Protocol: Peptide-protein interaction was analyzed using surface plasmon resonance. Analysis of the interaction between CGEN-CL1 [SEQ ID NO:1] and recombinant human clusterin (Biovendor, Modrice, Czech republic cat no: RD172034100) was conducted using the BIAcore biosensor (Pharmacia Biosensor, Uppsala, Sweden). Clusterin was immobilized directly to a CM5 sensor chip (2000 resonance units (RU)). Solution containing either 10 μM of CGEN-CL1 [SEQ ID NO:1] peptide or a mixture of CGEN-CL1 and its partner helix (SEQ ID NO:5), 10 μM each, preincubated for 30 minutes at room temperature, was injected to the BIAcore. As a background, the solutions were also injected onto an empty flow cell with no immobilized ligand and the binding levels achieved were subtracted. Data was analyzed using BIAevaluation software.

[3] = test system: MCF-7 breast cancer cell lines; experiment: MTT assay, CGEN-CL1 and/or paclitaxel on MCF-7 cells; assay type: cell-based
Protocol: 20 μl of MTT (3-(4,5-Dimethyl-2-thiazolyl)-2,5-diphenyl-2H-tetrazolium bromide) solution (Sigma Cat#M5655, lot#085k5322, 1 gr was dissolved in 200 ml H2O and filtered, giving a final concentration of 5 mg/ml) was added to each well and incubated for 4 hours at 37° C. after which the medium was vacuumed and 100 μl of DMSO was added to each well. Absorbance was measured in an ELISA reader at 492 nm.
A549, PC3 and MCF7 cells were seeded at 6000, 8000 and 10,000 cells per well respectively in 150 μl of media (DMEM medium+5% FBS) in 96 well plates.
Paclitaxel (Sigma T7402, Lot. 036k1217, Mw 853.9, 5 mg dissolved in 585 μl DMSO to a stock concentration of 10 mM, stored at −20° C.) and/or CGEN-CL1 (1 mg dissolved in 250 μl of sodium bi-carbonate to a stock concentration of 4 mg/ml) were added to the wells in 25 μl of medium (final volume of 200 μl) as detailed in Table 3. The relative growth was normalized to controls where neither paclitaxel nor CGEN-CL1 was added to wells.
An MTT assay was performed as described above in Example 2.

[4] = molecular target: T1, recombinant human clusterin; experiment: BIAcore surface plasmon resonance binding of CGEN-CL1 to clusterin; settings: SPR, 312-5000 nM CGEN-CL1, immobilized clusterin
Source text: The capability of CGEN-CL1 to specifically bind to recombinant Clusterin protein was investigated using the BIACORE technology, measuring protein-protein interaction and binding affinity. The technology is based on surface plasmon resonance (SPR), an optical phenomenon that enables detection of unlabeled interactants in real time. The SPR-based biosensors can be used in determination of active concentration, screening and characterization in terms of both affinity and kinetics.
Peptide-protein interaction was analyzed using surface plasmon resonance. Analysis of the interaction between CGEN-CL1 [SEQ ID NO:1] and recombinant human clusterin (Biovendor, Modrice, Czech republic cat no: RD172034100) was conducted using the BIAcore biosensor (Pharmacia Biosensor, Uppsala, Sweden). Clusterin was immobilized directly to a CM5 sensor chip (2000 resonance units (RU)). Solution containing five different concentrations of CGEN-CL1 [SEQ ID NO:1] (312, 625, 1250, 2500 and 5000 nM) was injected into the sample chamber of the BIACORE device and the interaction was monitored for 5 minutes using surface plasmon resonance.
As a background, the solutions were also injected onto an empty flow cell with no immobilized ligand and the binding levels achieved were subtracted. Data were analyzed using BIAevaluation software.

[5] = test system: A549 human non-small cell lung cancer cells; experiment: In vivo A549 mouse xenograft model, CGEN-CL1 with paclitaxel; design: species or system Balb/c Nu/Nu female mice; settings: A549 tumor bearing BALB/c nu/nu mice; CGEN-CL1 sc daily around tumor + paclitaxel 15 mg/kg IP; vs paclitaxel and vehicle
Protocol: In order to test the in-vivo activity of CGEN-CL1, Balb/c Nu/Nu female mice (10 in each group) were inoculated with 5×10^6 A549 human non-small cell lung cancer cells. Treatment was initiated when tumors reached 400-500 mm^3. One group received 15 mg/kg of paclitaxell (IP once every three days) and CGEN-CL1 [SEQ ID NO:1] (daily injected sub-cutaneously (sc) at the surrounding of the tumor) whereas the second group received paclitaxel and saline (at the same dose and route of administration). Tumor volume was measured every three days.

T1 sequence (P10909 23-449): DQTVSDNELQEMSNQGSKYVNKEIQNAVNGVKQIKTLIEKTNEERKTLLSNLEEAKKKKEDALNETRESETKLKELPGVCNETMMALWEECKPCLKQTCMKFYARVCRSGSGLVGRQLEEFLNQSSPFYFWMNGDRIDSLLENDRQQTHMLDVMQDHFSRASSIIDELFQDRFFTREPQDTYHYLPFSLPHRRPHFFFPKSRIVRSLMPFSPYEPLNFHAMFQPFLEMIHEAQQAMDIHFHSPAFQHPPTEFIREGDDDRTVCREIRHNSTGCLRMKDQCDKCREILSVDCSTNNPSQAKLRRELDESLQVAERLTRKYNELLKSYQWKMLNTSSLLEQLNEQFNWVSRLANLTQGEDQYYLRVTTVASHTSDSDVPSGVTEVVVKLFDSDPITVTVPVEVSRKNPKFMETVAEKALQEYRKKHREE

## CC[C@H](C)[C@H](NC(=O)[C@H](CCCNC(=N)N)NC(=O)[C@H](CC(=O)O)NC(=O)CNC(=O)[C@H](CC(N)=O)NC(=O)[C@H](CCSC)NC(=O)[C@H](Cc1c[nH]c2ccccc12)NC(=O)[C@H](Cc1ccccc1)NC(=O)[C@H](Cc1ccc(O)cc1)NC(=O)[C@H](Cc1ccccc1)NC(C)=O)C(=O)N[C@@H](CC(=O)O)C(=O)N[C@@H](CO)C(=O)N[C@@H](CC(C)C)C(=O)N[C@@H](CC(C)C)C(=O)N[C@@H](CCC(=O)O)C(=O)N[C@@H](CC(N)=O)C(=O)N[C@@H](CC(=O)O)C(=O)N[C@@H](CCCNC(=N)N)C(=O)N[C@@H](CCC(N)=O)C(=O)N[C@@H](CCC(N)=O)C(=O)N[C@H](C(N)=O)[C@@H](C)O [CGEN-CL1] (Ac-FYFWMNGDRIDSLLENDRQQT-NH2)
[1]
  EC50: 56 nM
[1]; MCF-7 breast cancer cells, MTT
  concentration achieving maximal growth inhibition: approximately 900 nM
  concentration with a growth inhibiting effect (as little as): 50 nM
PC3 cells
  percentage of apoptotic cells: increased the percentage of apoptotic cells
  percentage of cells in cell cycle phases: increased the percentage of cells in cell cycle phases G0/G1 and G2/M
[2]
  binding of CGEN-CL1 to recombinant Clusterin after co-incubation with partner helix: completely abolished the binding
[3]; CGEN-CL1 7.1 nM + Paclitaxel 2.25 nM
  Relative Growth: 0.62
[3]; CGEN-CL1 7.1 nM + Paclitaxel 30.00 nM
  Relative Growth: 0.31
[3]; CGEN-CL1 7.1 nM alone
  Relative Growth: 0.68
[3]; CGEN-CL1 22.3 nM + Paclitaxel 2.25 nM
  Relative Growth: 0.53
[3]; CGEN-CL1 22.3 nM + Paclitaxel 30.00 nM
  Relative Growth: 0.28
[3]; CGEN-CL1 22.3 nM alone
  Relative Growth: 0.61
[3]; CGEN-CL1 63.2 nM + Paclitaxel 2.25 nM
  Relative Growth: 0.46
[3]; CGEN-CL1 63.2 nM + Paclitaxel 30.00 nM
  Relative Growth: 0.24
[3]; CGEN-CL1 63.2 nM alone
  Relative Growth: 0.48
[3]; CGEN-CL1 185.9 nM + Paclitaxel 2.25 nM
  Relative Growth: 0.45
[3]; CGEN-CL1 185.9 nM + Paclitaxel 30.00 nM
  Relative Growth: 0.25
[3]; CGEN-CL1 185.9 nM alone
  Relative Growth: 0.49
[3]; CGEN-CL1 557.6 nM + Paclitaxel 2.25 nM
  Relative Growth: 0.42
[3]; CGEN-CL1 557.6 nM + Paclitaxel 30.00 nM
  Relative Growth: 0.23
[3]; CGEN-CL1 557.6 nM alone
  Relative Growth: 0.46
[3]; CGEN-CL1 added 24 hours after 30 nM paclitaxel vs concomitantly
  effect of timing on cell growth: need for lower concentrations of CGEN-CL1 to achieve the same effect
[3]; CGEN-CL1 and paclitaxel in combination
  effect on growth inhibition when given in combination: synergistic effect
[3]; at 30 nM Paclitaxel
  CGEN-CL1 concentration giving further inhibition of cell proliferation (as little as): 7.1 nM
[4]
  binding to parent protein clusterin: binds to its parent protein clusterin in a dose dependent manner
[5]
  reduction in tumor volume: 25-30%
